Test results from publication PMC6013247, “Preclinical characterization of INCB053914, a novel pan-PIM kinase inhibitor, alone and in combination with anticancer agents, in models of hematologic malignancies” (PLoS ONE, 2018).

Tests used:
Assay in all cases: Cell proliferation assay ([3H]-thymidine)
Type in all cases: cell-based
MOLP-2 = MOLP-2 (MM)
Procedure: (§1) The antiproliferative effects of INCB053914 on hematologic tumor cells were investigated using assays described in the Supporting Information (S2 File).
(§2) Cell proliferation assays. […] After 3 to 4 days, [^3H]-thymidine (1 μCi/well) (PerkinElmer) in PBS (10 μl) was added to the cell culture for an additional 12 hours. The incorporated radioactivity was separated by filtration with water through GF/B filters (Packard Bioscience, Meriden, Connecticut) and measured by liquid scintillation counting with a TopCount (Packard Bioscience).

KG-1a = KG-1a (AML)
Procedure: as §1, §2

WSU-NHL = WSU-NHL (DLBCL)
Procedure: as §1, §2

Kasumi-3 = Kasumi-3 (AML)
Procedure: as §1, §2

L363 = L363 (MM)
Procedure: as §1, §2

F36P = F36P (AML)
Procedure: as §1, §2

RPMI8226 = RPMI8226 (MM)
Procedure: as §1, §2

MM1.S = MM1.S (MM)
Procedure: as §1, §2

PL-21 = PL-21 (AML); read-out: Mean (± SD) GI50
Procedure: as §1, §2

KMS-12-BM = settings: Homo sapiens; KMS-12-BM (MM); read-out: Mean (± SD) GI50
Procedure: as §1, §2

Jeko-1 = Jeko-1 (MCL)
Procedure: as §1, §2

RPMI-6666 = settings: Homo sapiens; RPMI-6666 (HL); read-out: Mean (± SD) GI50
Procedure: as §1, §2

HL-60 = settings: Homo sapiens; HL-60 (AML); read-out: Mean (± SD) GI50
Procedure: as §1, §2

KARPASS-422 = settings: read-out: Mean (± SD) GI50
Procedure: as §1, §2

JVM2 = JVM2 (MCL)
Procedure: as §1, §2

JM-1 = JM-1 (T-ALL)
Procedure: as §1, §2

OCI-LY-3 = settings: Homo sapiens, OCI-Ly3; OCI-LY-3 (DLBCL); read-out: Mean (± SD) GI50
Procedure: as §1, §2

THP-1 = THP-1 (AML)
Procedure: as §1, §2

Kasumi-1 = Kasumi-1 (AML)
Procedure: as §1, §2

MOLP-8 = MOLP-8 (MM)
Procedure: as §1, §2

INA-6 = INA-6 (MM)
Procedure: as §1, §2

Jurkat = Jurkat (T-ALL)
Procedure: as §1, §2

OPM-2 = OPM-2 (MM)
Procedure: as §1, §2

SKM-1 = settings: Homo sapiens; SKM-1 (AML); read-out: Mean (± SD) GI50
Procedure: as §1, §2

SUDHL-1 = settings: Homo sapiens, SU-DHL-1; SUDHL-1 (DLBCL); read-out: Mean (± SD) GI50
Procedure: as §1, §2

MV-411 = MV-411 (AML)
Procedure: as §1, §2

Pfeiffer = Pfeiffer (DLBCL)
Procedure: as §1, §2

CCRF-CEM = settings: Homo sapiens; CCRF-CEM (T-ALL); read-out: Mean (± SD) GI50
Procedure: as §1, §2

MOLM-13 = settings: Homo sapiens; MOLM-13 (AML); read-out: Mean (± SD) GI50
Procedure: as §1, §2

U2932 = U2932 (DLBCL)
Procedure: as §1, §2

[1] = Homo sapiens, read-out: Mean (± SD) GI50

Question: What does the source list for `C[C@H]1CN(c2c(NC(=O)c3ccc(F)c(-c4c(F)cccc4F)n3)cnc3c2CC[C@H]3O)C[C@@H](N)[C@@H]1O.O=P(O)(O)O` [INCB053914, N-((R)-4-((3R,4R,5S)-3-amino-4-hydroxy-5-methylpiperidin-1-yl)-7-hydroxy-6,7-dihydro-5H-cyclopenta[b]pyridin-3-yl)-6-(2,6-difluorophenyl)-5-fluoropicolinamide phosphate]?
Answer: Mean (SD) maximum inhibition (MOLP-2): 95.4 ± 3.2%; GI50 (MOLP-2; read-out: Mean (± SD) GI50): 23.8 ± 10.1 nM; GI50 (KG-1a; [1]): 14.3 ± 4.9 nM; Mean (SD) maximum inhibition (KG-1a): 94.5 ± 1.5%; GI50 (WSU-NHL; [1]): 1270 nM; Mean (SD) maximum inhibition (WSU-NHL): 76.8 ± 10.5%; Mean (SD) maximum inhibition (Kasumi-3): 84.3 ± 7.2%; GI50 (Kasumi-3; read-out: Mean (± SD) GI50): 4.9 nM; GI50 (L363; Homo sapiens, L-363, read-out: Mean (± SD) GI50): 115 ± 89.4 nM; Mean (SD) maximum inhibition (L363): 90.3 ± 8.1%; Mean (SD) maximum inhibition (F36P): 94.7 ± 2.5%; GI50 (F36P; read-out: Mean (± SD) GI50): 76.1 ± 36.7 nM; GI50 (RPMI8226; Homo sapiens, RPMI-8226, read-out: Mean (± SD) GI50): 230 ± 132 nM; Mean (SD) maximum inhibition (RPMI8226): 96.8 ± 2.2%; GI50 (MM1.S; [1]): 55.4 ± 38.1 nM; Mean (SD) maximum inhibition (MM1.S): 88.3 ± 3.1%; GI50 (PL-21): > 3000 nM; GI50 (KMS-12-BM): 34.2 ± 19.9 nM; GI50 (Jeko-1; [1]): 117 ± 45.5 nM; Mean (SD) maximum inhibition (Jeko-1): 91.3 ± 2.9%; GI50 (RPMI-6666): > 3000 nM; GI50 (HL-60): > 3000 nM; GI50 (KARPASS-422): > 3000 nM; GI50 (JVM2; Homo sapiens, JVM-2, read-out: Mean (± SD) GI50): 290 ± 291 nM; Mean (SD) maximum inhibition (JVM2): 63.0 ± 8.7%; GI50 (JM-1; Homo sapiens, JM1, read-out: Mean (± SD) GI50): 19.5 ± 15.1 nM; Mean (SD) maximum inhibition (JM-1): 94.3 ± 4.9%; GI50 (OCI-LY-3): > 3000 nM; GI50 (THP-1; [1]): 2050 nM; Mean (SD) maximum inhibition (THP-1): 76.3 ± 22.3%; GI50 (Kasumi-1; [1]): 206 ± 76.3 nM; Mean (SD) maximum inhibition (Kasumi-1): 76.7 ± 4.6%; GI50 (MOLP-8; [1]): 13.2 ± 7.7 nM; Mean (SD) maximum inhibition (MOLP-8): 93.3 ± 1.7%; Mean (SD) maximum inhibition (INA-6): 99.0 ± 0.2%; GI50 (INA-6; read-out: Mean (± SD) GI50): 24.8 ± 4.6 nM; GI50 (Jurkat; [1]): 931 ± 800 nM; Mean (SD) maximum inhibition (Jurkat): 66.0 ± 7.0%; GI50 (OPM-2; [1]): 123 ± 4.9 nM; Mean (SD) maximum inhibition (OPM-2): 87.5 ± 8.0%; GI50 (SKM-1): > 3000 nM; GI50 (SUDHL-1): > 3000 nM; GI50 (MV-411; Homo sapiens, MV4-11, read-out: Mean (± SD) GI50): 35.2 ± 41.7 nM; Mean (SD) maximum inhibition (MV-411): 94.3 ± 3.9%; GI50 (Pfeiffer; [1]): 19.5 nM; Mean (SD) maximum inhibition (Pfeiffer): 90.5 ± 6.7%; GI50 (CCRF-CEM): > 3000 nM; GI50 (MOLM-13): > 3000 nM; GI50 (U2932; [1]): 34.5 ± 10.1 nM; Mean (SD) maximum inhibition (U2932): 83.6 ± 8.0%
